Assay results published in US6613317B1, “Volatile attractants for diabrotica species” (priority 1988, dated 2003).
Marks after values point to notes of the source that are not given here.

Columns and labels:
D. cristata = test: Sticky trap attraction in prairie habitat, Trelease Woods (Example 2); assay type: in vivo, Diabrotica cristata; conditions: 100 mg per trap, n = 4
How it was run: (§1)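 Lure-dosed cotton wicks (solids in acetone; untreated controls) on TangleTrap-coated cartons atop 1 m posts, four replicates 10 m apart in relict prairie, mid-August over two years. Read-out: mean beetles caught after 24-h; log-transformed ANOVA with Duncan's multiple range test.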

D. u. howardi = test: as above; assay type: in vivo, Diabrotica undecimpunctata howardi; conditions: 100 mg per trap, n = 4
How it was run: as §1

D. barberi = test: Sticky trap attraction along hybrid corn, Pomology South Farms (Example 2); assay type: in vivo, Diabrotica barberi; conditions: 100 mg per trap, n = 4
How it was run: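 Lures (>98% purity) dosed at 100 mg per trap on cotton wicks atop TangleTrap-coated 1.0 liter cartons, solids dissolved in acetone; untreated wicks as controls. Four replicates placed 10 m apart on 1 m posts along a 0.8 ha hybrid corn field; mean beetles caught after 24-h, log-transformed ANOVA with Duncan's test.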

[1] = tested on: southern corn rootworm (SCR) adults; test: Sticky trap attraction in corn, estragole analogues (Example 3); assay type: in vivo, Diabrotica undecimpunctata howardi; conditions: 100 mg per trap, n = 4
How it was run: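 Cotton wicks dosed with 100 mg or 100 μL attractant per trap on TangleTrap-coated cartons, four replicates 10 m apart on 1 m posts at field edges of hybrid or sweet corn. Mean beetles caught after ~24 h; log-transformed ANOVA with Duncan's test, P=0.05.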

[2] = tested on: northern corn rootworm (NCR); test: Sticky trap attraction in corn, phenylethanol analogues (Example 6); assay type: in vivo, Diabrotica barberi; conditions: four replicates; for Mean number of NCR per trap (± standard deviation): 24 hour
How it was run: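 Field sticky traps (TangleTrap-coated cartons) baited with 100 mg or 100 μL test chemical on cotton wicks unless otherwise indicated; untreated wicks as controls. Four replicates per treatment, spaced 10 m apart on 1 m posts at corn field edges. Readout: mean beetles caught per trap after ~24 h; log-transformed ANOVA with Duncan's test, P=0.05.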

[3] = day 1 after single 100 mg dosage on cotton wick
[4] = day 2 after single 100 mg dosage on cotton wick
[5] = day 3 after single 100 mg dosage on cotton wick
[6] = day 4 after single 100 mg dosage on cotton wick
[7] = day 5 after single 100 mg dosage on cotton wick
[8] = day 6 after single 100 mg dosage on cotton wick
[9] = day 7 after single 100 mg dosage on cotton wick
[10] = day 8 after single 100 mg dosage on cotton wick
[11] = day 11 after single 100 mg dosage on cotton wick

SMILES | Mean number of D. cristata per day (±standard deviation) (D. cristata; August 11, 1987) | Mean number of D. cristata per day (±standard deviation) (D. cristata; August 14, 1987) | Mean number of D. u. howardi per day (±standard deviation) (D. u. howardi; August 11, 1987) | Mean number of D. u. howardi per day (±standard deviation) (D. u. howardi; August 14, 1987) | Mean number of D. barberi per stick trap per day (±standard deviation) in corn (D. barberi; August 7) | Mean number of D. barberi per stick trap per day (±standard deviation) in corn (D. barberi; August 18) | Mean number of SCR (±standard deviation) per sticky trap after 24 hours ([1]; August 7 (Table 11)) | Mean number of SCR (±standard deviation) per sticky trap after 24 hours ([1]; August 18 (Table 11)) | Mean number (control subtracted) of NCR per trap [2, 3] [per trap] | Mean number (control subtracted) of NCR per trap [2, 4] [per trap] | Mean number (control subtracted) of NCR per trap [2, 5] [per trap] | Mean number (control subtracted) of NCR per trap [2, 6] [per trap] | Mean number (control subtracted) of NCR per trap [2, 7] [per trap] | Mean number (control subtracted) of NCR per trap [2, 8] [per trap] | Mean number (control subtracted) of NCR per trap [2, 9] [per trap] | Mean number (control subtracted) of NCR per trap [2, 10] [per trap] | Mean number (control subtracted) of NCR per trap [2, 11] [per trap] | further results
C=CCc1ccc(O)c(OC)c1 [XXIV, eugenol] | 39.5 ± 9.4^c per day | 20.0 ± 8.4^cd per day | 0.0^a per day | 0.0^a per day | 5.8 ± 2.2^b per stick trap per day | 16.3 ± 5.7^b per stick trap per day | 6.2 ± 1.0^a per sticky trap | 0.0^a per sticky trap | 88.2 | 67.3 | 14.3 | 18.0 | 20.7 | 29.9 | 30.2 | 35.5 | 10.0 | Mean number of D. cristata per sticky trap per day (±standard deviation) (D. cristata; August 18, first year): 11.5 ± 8.6^b per sticky trap per day; Mean number of D. cristata per sticky trap per day (±standard deviation) (D. cristata; August 20, first year): 15.5 ± 7.9^c per sticky trap per day; Mean number of D. cristata per sticky trap per day (±standard deviation) (D. cristata; August 27, first year): 3.5 ± 3.3^b per sticky trap per day; Mean number of D. u. howardi per sticky trap per day (±standard deviation) (D. u. howardi; August 18, first year): 0.3 ± 0.5^a per sticky trap per day; Mean number of D. u. howardi per sticky trap per day (±standard deviation) (D. u. howardi; August 20, first year): 0.8 ± 0.5^a per sticky trap per day; Mean number of D. u. howardi per sticky trap per day (±standard deviation) (D. u. howardi; August 27, first year): 0.3 ± 0.5^a per sticky trap per day
OCC=Cc1ccccc1 [XVIII, cinnamyl alcohol] | 28.3 ± 5.3^c per day | 20.5 ± 1.3^d per day | 0.3 ± 0.5^a per day | 2.8 ± 1.7^b per day | 8.5 ± 6.1^b per stick trap per day | 23.3 ± 5.9^c per stick trap per day | 24.5 ± 13.6^b per sticky trap | 1.8 ± 1.3^b per sticky trap | 52.0 | 65.3 | 17.3 | 19.5 | 17.7 | 7.7 | 10.4 | 11.0 | 9.8 | Mean number of SCR per sticky trap after 24 hours ([1]; August 5 (Table 10)): 14.5 ± 9.6^ab per sticky trap; Mean number of NCR per trap (± standard deviation) ([2]; Table 16, 100 mg per trap): 50.7 ± 50.9b per trap; Mean number of NCR per trap (± standard deviation) ([2]; Table 18, 1 mg): 3.5 ± 2.4a per trap; Mean number of NCR per trap (± standard deviation) ([2]; Table 18, 3 mg): 4.0 ± 0.8ab per trap; Mean number of NCR per trap (± standard deviation) ([2]; Table 18, 10 mg): 8.5 ± 2.1bc per trap; Mean number of NCR per trap (± standard deviation) ([2]; Table 18, 30 mg): 15.2 ± 4.2c* per trap; Mean number of NCR per trap (± standard deviation) ([2]; Table 20, 100 mg per trap): 127.0 ± 24.2b per trap
